Consider ten molecules from patent publication US10342796B2, “Acrylanilide derivative, preparation method, and applications thereof in pharmacy” (Ancureall Pharmaceutical (Shanghai) Co., Ltd., priority 2015, dated 2019).

Experiment in all cases: Growth inhibition GI50 in vitro (CCK8/MTT, 72 h)
What all share (assay type): cell-based, human

In one assay the test system is AU565 (Her2 amp). As to conditions: Homo sapiens, AU565; HER2 positive cell line; range of GI50; read-out: GI50 AU-565.
The test system of assay [1] is H460 (EGFR wt, Kras G61H). As to conditions: Homo sapiens, NCI-H460; EGFR wild type cell line; range of GI50; read-out: GI50 H460.
The next assay relates to A549 (EGFR WT). As to conditions: Homo sapiens, A549; EGFR wild type cell line; range of GI50; read-out: GI50 A549.
The subject of assay [2] is A431 (EGFR WT, amplification and high expression). Conditions: Homo sapiens, A-431; EGFR wild type cell line; range of GI50; read-out: GI50 A431.
Assay [3] deals with H1299 (EGFR wt, Nras Q61K). As to conditions: Homo sapiens, NCI-H1299; EGFR wild type cell line; range of GI50; read-out: GI50 H1299.
The test system of the next assay is PC-9 (EGFR dE746-A750). As to conditions: Homo sapiens; EGFR mutant cell line; range of GI50; read-out: GI50 PC-9.
Assay [4] deals with PC-9ER (EGFR delE746-A750/T790M). Conditions: Homo sapiens, PC-9/ER; EGFR mutant cell line; range of GI50; read-out: GI50 PC9ER.
A further assay relates to HCC827 (EGFR dE746-A750). Conditions: Homo sapiens, HCC827; EGFR mutant cell line; range of GI50; read-out: GI50 HCC827.
A further assay concerns H1975 (EGFR L858R/T790M). As to conditions: Homo sapiens, NCI-H1975; EGFR mutant cell line; range of GI50; read-out: GI50 H1975.
Another assay relates to N87 (HER2 Amp). Conditions: Homo sapiens; HER2 positive cell line; range of GI50; read-out: GI50 N87.
Another assay deals with SK-BR-3 (Her2 amp). Conditions: Homo sapiens, SK-BR-3; HER2 positive cell line; range of GI50; read-out: GI50 SK-BR-3. The protocol: Human lung adenocarcinoma cell line Calu-3 (ATCC) was cultured with 1×MEM complete medium (10% FBS, 1% double-antibiotics, 1% NEAA (Gibco), 2 mM glutamine and 1 mM of sodium pyruvate). Human breast cancer cell line SK-BR-3 was cultured with McCOY'S5A complete medium (10% FBS). Human colon cancer cell line SNU1040 (HER2 V777M positive) (ATCC) and human bronchoalveolar adenocarcinoma cell line NCI-H1781 (expressing HER2 exon 20 G776VC mutation) (ATCC) were cultured with 1×RPMI1640 complete medium (10% FBS), respectively.
The suspension cells were collected by centrifugation. The supernatant was discard and the cell pellet was resuspended and counted. Different cell concentrations (5˜10×10^4 cells/mL) were prepared according to the growth cycle of each cell line and then seeded on a 96-well plate (Corning), 100 μL/well. The cells were incubated over night at 37° C., 5% CO2. The compounds were added to the cells on the second day with 2 wells in parallel. The final concentration of organic solvent shall not exceed 1%. The cells were continually incubated for 72 h, and then subjected to MTT assay.
The present compounds and the reference compounds were dissolved with DMSO (Sigma), respectively. […] The storage concentration of compounds was 10 mM and kept at −20° C. They were diluted by 2 times or 10 times with serial dilution before using.
Dojindo CCK8 reagent kit was used as MTT assay. […] FC meter was used as microplate reader.
Adherent cell culture medium was discard and immediately replaced with fresh prepared medium which contains 10% CCK8 reagent (100 μL/well). For the suspension cells, CCK8 was directly added to 10% of the final concentration. The cells were continually incubated for 1˜4 h. When the color of control wells turned to dark yellow, the absorption value was measured at OD450 nm. The cell growth rate was calculated according to the following formula: cell growth rate (%)=100*(T−T0)/(C−T0), T=optical density of drug treatment cell well—optical density of blank control well; T0=optical density of cell well before drug treatment—optical density of blank control well; C=optical density of cell well of solvent control group—optical density of blank control well. […] The experiment was independently repeated 1˜3 times, and subject to biological statistical analysis.

As a reminder, the GI50 is the concentration at which growth is held to half of that of the control.

In the case of `C=CC(=O)Nc1cc(Nc2nccc(Nc3cc(OC)c(Cl)cc3Cl)n2)c(OC)cc1N(C)CCN(C)C` [Compound 16, N-(5-(4-(2,4-dichloro-5-methoxyphenyl-amino)-pyrimidin-2-ylamino)-2-(2-(dimethylamino-ethyl)-methyl-amino)-4-methoxyl-phenyl)-acrylamide], the GI50 in the assay with AU565 (Her2 amp) is 100 to 1000 nM; in assay [1], > 1000 nM; in the assay with A549 (EGFR WT), > 1000 nM; in assay [2] it was > 1000 nM; in assay [3] it was > 1000 nM; with PC-9 (EGFR dE746-A750) it was 10 to 100 nM. Further, the 50% growth inhibitory concentration (GI50) in assay [4] lay within 10 to 100 nM; in the assay on HCC827 (EGFR dE746-A750) it was 10 to 100 nM; with H1975 (EGFR L858R/T790M), 10 to 100 nM; in the assay on N87 (HER2 Amp) it was 100 to 1000 nM; in the assay on SK-BR-3 (Her2 amp), 100 to 1000 nM.
Regarding `C=CC(=O)Nc1cc(Nc2nccc(-n3ccc4cc(OC)ccc43)n2)c(OC)cc1N(C)CCN(C)C` [Compound 78, N-(5-(4-(5-methoxyl-1H-indol-1-yl)-pyrimidin-2-ylamino)-2-((2-dimethylamino-ethyl)-methyl-amino)-4-methoxyl-phenyl)-acrylamide], the GI50 with AU565 (Her2 amp) was 10 to 100 nM; in assay [1], > 1000 nM; with A549 (EGFR WT) it was > 1000 nM; in [2] it was 100 to 1000 nM; in [3], > 1000 nM; in the assay with PC-9 (EGFR dE746-A750), 10 to 100 nM. Besides, the concentration for 50% growth inhibition (GI50) in [4] was 10 to 100 nM; in the assay on HCC827 (EGFR dE746-A750), 10 to 100 nM; in the assay with H1975 (EGFR L858R/T790M), < 10 nM; in the assay on N87 (HER2 Amp), < 10 nM; with SK-BR-3 (Her2 amp), 10 to 100 nM.
For `C=CC(=O)Nc1cc(Nc2cc(Nc3cc(F)cc(Br)c3)ncn2)c(OC)cc1N(C)CCN(C)C` [Compound 139, N-(5-(6-(3-bromo-5-fluoro-phenylamino)-pyrimidin-4-ylamino)-2-((2-dimethylamino-ethyl)-methyl-amino)-4-methoxyl-phenyl)-acrylamide], the GI50 in the assay on AU565 (Her2 amp) is < 10 nM; in assay [1], > 1000 nM; in the assay with A549 (EGFR WT) it was > 1000 nM; in assay [2], 100 to 1000 nM; in [3] it was > 1000 nM; in the assay on PC-9 (EGFR dE746-A750) it was < 10 nM. In addition, the GI50 is < 10 nM in assay [4]; < 10 nM in the assay with HCC827 (EGFR dE746-A750); 10 to 100 nM in the assay on H1975 (EGFR L858R/T790M); < 10 nM with N87 (HER2 Amp); < 10 nM with SK-BR-3 (Her2 amp).
Take `C=CC(=O)Nc1cc(Nc2nccc(-n3ccc4c(C)cccc43)n2)c(OC)cc1N(C)CCN(C)C` [Compound 98, N-(5-(4-(4-methyl-1H-indol-1-yl)-pyrimidin-2-ylamino)-2-(2-(dimethylamino-ethyl)-methyl-amino)-4-methoxyl-phenyl)-acrylamide]: the GI50 in the assay on AU565 (Her2 amp) is 100 to 1000 nM; in [1] it was > 1000 nM; in the assay on A549 (EGFR WT), > 1000 nM; in [2], 100 to 1000 nM; in assay [3], > 1000 nM; with PC-9 (EGFR dE746-A750), 10 to 100 nM. The concentration for 50% growth inhibition (GI50) (in assay [4]; in the assay with HCC827 (EGFR dE746-A750); in the assay on H1975 (EGFR L858R/T790M); in the assay on N87 (HER2 Amp); in the assay on SK-BR-3 (Her2 amp)) was 10 to 100 nM each time.
On to `C=CC(=O)Nc1cc(Nc2nccc(-n3ccc4ccc(C#N)cc43)n2)c(OC)cc1N(C)CCN(C)C` [Compound 60, N-{5-[4-(6-cyano-indol-1-yl)-pyrimidin-2-ylamino]-2-[(2-dimethylamino-ethyl)-methyl-amino]-4-methoxyl-phenyl}-acrylamidel], for which the GI50 in the assay with AU565 (Her2 amp) is 100 to 1000 nM; in assay [1], > 1000 nM; in the assay with A549 (EGFR WT), > 1000 nM; in assay [2], > 1000 nM; in [3] it was > 1000 nM; with PC-9 (EGFR dE746-A750) it was 100 to 1000 nM. Further, the GI50 (in [4]; with HCC827 (EGFR dE746-A750); with H1975 (EGFR L858R/T790M); in the assay on N87 (HER2 Amp); in the assay with SK-BR-3 (Her2 amp)) was 100 to 1000 nM each time.
On to `C=CC(=O)Nc1cc(Nc2nccc(-n3ccc4cc(C)ccc43)n2)c(OC)cc1N(C)CCN(C)C` [Compound 77, N-(5-(4-(5-methyl-1H-indol-1-yl)-pyrimidin-2-ylamino)-2-((2-dimethylamino-ethyl)-methyl-amino)-4-methoxyl-phenyl)-acrylamide], for which the concentration for 50% growth inhibition (GI50) was 100 to 1000 nM in the assay with AU565 (Her2 amp); > 1000 nM in assay [1]; > 1000 nM in the assay on A549 (EGFR WT); 100 to 1000 nM in assay [2]; > 1000 nM in assay [3]; 100 to 1000 nM in the assay with PC-9 (EGFR dE746-A750). Moreover, the GI50 in assay [4] was in the range of 10 to 100 nM; in the assay with HCC827 (EGFR dE746-A750) it was 100 to 1000 nM; with H1975 (EGFR L858R/T790M) it was 10 to 100 nM; with N87 (HER2 Amp), 100 to 1000 nM; in the assay on SK-BR-3 (Her2 amp), 100 to 1000 nM.
Turning to `C=CC(=O)Nc1cc(Nc2nccc(Nc3ccc(F)c(Cl)c3)n2)c(OC)cc1N(C)CCN(C)C` [Compound 13, N-(5-(4-(3-chloro-4-fluorophenyl-amino)-pyrimidin-2-ylamino)-2-(2-(dimethylamino-ethyl)-methyl-amino)-4-methoxyl-phenyl)-acrylamide], the GI50 in the assay with AU565 (Her2 amp) is 10 to 100 nM; in [1] it was > 1000 nM; with A549 (EGFR WT), > 1000 nM; in [2], 100 to 1000 nM; in assay [3] it was > 1000 nM; in the assay with PC-9 (EGFR dE746-A750) it was 10 to 100 nM. Moreover, the concentration for 50% growth inhibition (GI50) (in assay [4]; with HCC827 (EGFR dE746-A750); with H1975 (EGFR L858R/T790M); in the assay on N87 (HER2 Amp); in the assay with SK-BR-3 (Her2 amp)) was 10 to 100 nM each time.
Turning to `C=CC(=O)Nc1cc(Nc2cc(-c3cn(C)c4cc(F)ccc34)ncn2)c(OC)cc1N(C)CCN(C)C` [Compound 186, N-(4-methoxyl-5-(6-(6-fluoro-1-methyl-1H-indol-3-yl)-pyrimidin-4-ylamino)-2-(2-(dimethylamino-ethyl)-methyl-amino)-phenyl)-acrylamide], the GI50 in the assay on AU565 (Her2 amp) is 10 to 100 nM; in [1], > 1000 nM; in the assay with A549 (EGFR WT), > 1000 nM; in assay [2] it was 100 to 1000 nM; in assay [3], > 1000 nM; in the assay on PC-9 (EGFR dE746-A750) it was 10 to 100 nM. For the same molecule, the GI50 (in assay [4]; in the assay with HCC827 (EGFR dE746-A750); in the assay with H1975 (EGFR L858R/T790M); in the assay on N87 (HER2 Amp); in the assay with SK-BR-3 (Her2 amp)) was 10 to 100 nM in each case.
For `C=CC(=O)Nc1cc(Nc2cc(Nc3ccc(F)c(Cl)c3)ncn2)c(OC)cc1N1CCCN(C)CC1` [Compound 144, N-(5-(6-(3-chloro-4-fluoro-phenylamino)-pyrimidin-4-ylamino)-2-(4-methyl-[1,4]diazepin-1-yl)-4-methoxyl-phenyl)-acrylamide], the GI50 in the assay with AU565 (Her2 amp) was < 10 nM; in assay [1], > 1000 nM; in the assay with A549 (EGFR WT) it was > 1000 nM; in [2], 10 to 100 nM; in [3] it was > 1000 nM; in the assay with PC-9 (EGFR dE746-A750) it was < 10 nM. In addition, the concentration for 50% growth inhibition (GI50) (in [4]; with HCC827 (EGFR dE746-A750); with H1975 (EGFR L858R/T790M); with N87 (HER2 Amp); in the assay on SK-BR-3 (Her2 amp)) was < 10 nM each time.
On to `C=CC(=O)Nc1cc(Nc2nccc(Nc3ccc(OCc4ccccn4)c(Cl)c3)n2)c(OC)cc1N1CCC(N(C)C)CC1` [Compound 28], for which the GI50 is 10 to 100 nM in the assay with AU565 (Her2 amp); > 1000 nM in assay [1]; > 1000 nM in the assay on A549 (EGFR WT); 100 to 1000 nM in assay [2]; > 1000 nM in assay [3]; 10 to 100 nM in the assay on PC-9 (EGFR dE746-A750). Besides, the GI50 (in assay [4]; in the assay on HCC827 (EGFR dE746-A750); in the assay on H1975 (EGFR L858R/T790M); with N87 (HER2 Amp); in the assay with SK-BR-3 (Her2 amp)) was 10 to 100 nM throughout.
